Laboratory results reported in patent US7572579B2, “Screening method for a ribonuclease H inhibitor of a reverse transcriptase” (priority 2004, dated 2009).
Where two headings read alike, the source gives them in different places.

Legend:
virus proliferation = conditions: reported in literature; cited from earlier work
[1] = target: T1, RNase H activity of Y188L mutant enzyme of HIV (Human immunodeficiency virus type 1 group M subtype B, UniProt P04585, Y775L); test: biochemical
[2] = target: polymerase activity of Y188L mutant enzyme of HIV (Human immunodeficiency virus type 1 group M subtype B, UniProt P04585, Y775L); test: biochemical
[3] = target: T1, RNase H activity of Y188L mutant enzyme of HIV; conditions: with preincubation
[4] = target: T2, RNase H activity of wild type reverse transcriptase of HIV (Human immunodeficiency virus type 1 group M subtype B, UniProt P04585); test: biochemical
[5] = target: T2, RNase H activity of wild type reverse transcriptase of HIV; conditions: wild type RT, with preincubation
[6] = target: polymerase activity of wild type reverse transcriptase of HIV (Human immunodeficiency virus type 1 group M subtype B, UniProt P04585); test: biochemical; conditions: Polymerase IC50, wild type RT
[7] = with preincubation, with metal cofactors
[8] = with preincubation, without metal cofactors

SMILES: O=C(O)C(=O)CC(=O)c1ccc(NC(=O)c2ccccc2)s1 [Compound 1, 4-[5-(benzoylamino)thien-2-yl]-2,4-dioxobutanoic acid]
- inhibition of virus proliferation in cell-based assay (virus proliferation): can not inhibit virus proliferation

SMILES: Cc1ccc(C(=O)Nc2ccc(S(=O)(=O)O)c3cc(S(=O)(=O)O)cc(S(=O)(=O)O)c23)cc1NC(=O)c1cccc(NC(=O)Nc2cccc(C(=O)Nc3cc(C(=O)Nc4ccc(S(=O)(=O)O)c5cc(S(=O)(=O)O)cc(S(=O)(=O)O)c45)ccc3C)c2)c1 [suramin, Suramin sodium]
- IC50 [1]: > 77.1 µM
- IC50 [2, 7]: 2.47 µM
- IC50 [2, 8]: 10 µM
- IC50 ([2]; without preincubation): > 77.1 µM
- RNaseH IC50 ([3]; with metal cofactors): ≈POL
- RNaseH IC50 ([3]; without metal cofactors): ≈POL
- IC50 [4]: > 77.1 µM
- RNaseH IC50 ([5]; with metal cofactors): ≈POL
- RNaseH IC50 ([5]; without metal cofactors): ≈POL
- IC50 [6, 7]: 2.47 µM
- IC50 [6, 8]: 16.2 µM
- IC50 ([6]; without preincubation): > 77.1 µM
